# Assay results published in US20260373132A1, “PERK INHIBITORHC-5404 IN COMBINATION WITH ANTI-PD-1 ANTIBODY AND/OR AN ANTIANGIOGENETIC AGENT FOR USE IN THE TREATMENT OF CANCER” (HIBERCELL, INC., priority 2022, published 2026).
# Tests used:
# [1] = tested on: tumor vasculature of 786-O xenografts; assay: IHC of tumor vasculature in 786-O xenografts; format: in vivo, mouse
# Description: Formalin-fixed paraffin-embedded samples were sectioned at 5 μm thickness and mounted on Superfrost Plus microscope slides (Fisher Scientific). All immunohistochemical (IHC) staining was performed on Bond Rx auto-stainer (Leica Biosystems) using the conventional TSA-amplified detection system. Primary antibodies used were as follows: α-CD31 (Abcam #ab182981), α-smooth muscle actin (SMA; Abcam #ab124964), α-Meca32 (Novus Biologicals #NB100-77668). TSA-conjugated Alexa488 and Alexa647 fluorophores from Invitrogen (#B40953 and #B40958) were used at 1:500 dilution. Slides were counterstained with DAPI and cover slipped using Mowiol antifade mounting media (Sigma #D2522).
# Slides were imaged with Aperio Versa 200 (Leica Biosystems) whole-slide scanner using 10×/0.32NA objective, and the data were analyzed using custom-written macros in ImageJ/FIJI (NIH). Briefly, 150 μm of outer edges of the tumor sections were eliminated from the analysis. Gaussian-blurred DAPI channel was used to measure the area of the tissue. Scans of […] were processed with median filter to remove noise, then positive areas were measured with appropriate threshold levels. % positive area for each marker was calculated. CD31-SMA double positive areas were measured via image calculation of the binary images. One-way ANOVA and pair-wise comparisons were performed on the data using Prism GraphPad.
# PERK is an adaptive stress response that links hypoxia and nutrient deprivation with proangiogenic signaling. The effect of HC-5404 on tumor vasculature when administered in combination with antiangiogenic VEGFR-TKIs was investigated.
# As immature blood vessels mature, they develop a mural layer of cells that express smooth muscle actin (SMA), which encircles and stabilizes the maturing vessel. Co-staining for both CD31 and SMA was conducted to determine whether treatments were affecting mature or immature tumor blood vessels.
# This example investigated the inhibition the effect of cabozantinib on the formation of new tumor vasculature and on pericytes following procedures analogous to those described above.
# pPERK in A498 tumors = assay: pPERK in A498 tumor xenografts; format: in vivo, mouse
# Description: Samples were put in 500 μL of Novex lysis buffer consisting of 2× Novex Tris-Glycine SDS sample buffer (ThermoFisher LC2676), 1× Phosphatase Inhibitor Cocktail III (Sigma P0044), 1× PhosphataseArrest I (Gbioscience 113P-D), 1×2-mercaptoethanol (Gibco 21985023), 1× Benzonase (EMD Millipore Corp 70746-3), and 1× Protease inhibitor cocktail tablet (Roche/Sigma 11836170001). Samples were homogenized with the Polytron and heated for 10 min at 95 °C. They were then centrifuged at max speed for 10 min and the supernatant was transferred. Protein concentrations of samples were measured using the Pierce 660 nm Protein assay kit (Thermo Scientific 22660) according to the manufacturer's instructions.
# Western Blot analysis was performed on the SimpleWestern high-throughput protein analysis platform (ProteinSimple 004-650) according to manufacturer's protocol using a 12-230 kDA Separation Module (ProteinSimple SM-W004) and Total Protein Detection Module (ProteinSimple DM-TP01). Antibodies used were: (Add info for other antibodies used) pPERK (Lilly; 1:50) and PERK (Cell Signaling Technology 5683; 1:200). All protein analytes were normalized to total protein loaded on capillary. […]
smiles,measurement,setting,value
"Cc1cc(NC(=O)[C@H](O)c2cc(F)cc(F)c2)ccc1-c1cnc(N)c(C(=O)NC(C)C)c1 [HC-5404, (R)-2-amino-5-(4-(2-(3,5-difluorophenyl)-2-hydroxyacetamido)-2-methylphenyl)-N-isopropylnicotinamide]",expression of any vascular markers,[1]; HC-5404 single agent (FIG. 39),did not affect the expression of any vascular markers
same,proportion of Meca32 expressing vascular endothelial cells,"[1]; axitinib study (FIG. 38, 39)",did not affect this vascular endothelium marker
same,pPERK expression in A498,"pPERK in A498 tumors; 30 mg/kg PO BID, seven days (FIG. 30)",strongly inhibited pPERK expression
same,pPERK levels in A498,"pPERK in A498 tumors; DC-101 study, 4 days of treatment (FIG. 37)",inhibited the pPERK signal
